Experimental data reported in patent US7329494B2, “Method of detection and quantification of cGMP by using a cGMP-visualizing probe” (Japan Science and Technology Corporation, priority 2000, dated 2008).

Tested on: intracellular cGMP in CGY-Del1-expressing HEK293 cells
Assay: Intracellular cGMP detected by emission ratio in CGY-expressing HEK293 cells stimulated with NOC-7
Assay type: cell-based, Human
Protocol: Human embryonic kidney cells (HEK293) were cultured in Dulbecco's modified eagle medium supplemented with 10% FCS, 1 mM sodium pyruvate, and 0.1 mM nonessential amino acids at 37° C. in 5% CO2, to give HEK293 cells.
The resulting HEK293 cells were transfected by the same method as in Example 2 with CGY-Del1, CGY-Del2, CGY-Del3 and CGY-Del4 expression vectors, to give HEK293 cells expressing each type of CGY.
The cGMP-visualizing probes were used to detect intracellular cGMP generated upon stimulation of the living cells with nitrogen monoxide (NO).
First, to activate the soluble guanylyl cyclase in the HEK293 cells having CGY-Del1 introduced therein obtained in Example 6, NOC-7, a compound for releasing NO spontaneously in a rate-controlled manner, was added to give its final extracellular concentration of 500 μM.
Accordingly, 1 mM 8-Br-cGMP, a phosphodiesterase-resistant analogue of cGMP, was added to the system described above.

Nc1nc2c(nc(Br)n2[C@@H]2O[C@@H]3COP(=O)(O)O[C@H]3[C@H]2O)c(=O)[nH]1 [8-Br-cGMP]
emission ratio on addition after NOC-7-induced decrease and recovery (added 900 seconds after 500 μM NOC-7, 1 mM 8-Br-cGMP): decreased again

CNCCCN(C)/[N+]([O-])=N/O [NOC-7]
emission ratio upon addition of NOC-7 (500 μM NOC-7): rapidly decreased

O=c1onc2cnc3ccccc3n12 [ODQ]
NOC-7-induced emission ratio change in cells pre-treated with ODQ (10 μM ODQ, 500 μM NOC-7): change in the emission ratio elicited by NOC-7 was not observed

CCCOc1ccccc1-c1nc2nn[nH]c2c(=O)[nH]1 [zaprinast]
NOC-7-induced emission ratio change in cells treated with zaprinast (100 μM zaprinast, 500 μM NOC-7): later slower increase in the emission ratio was not observed
